The values that follow come from PubChem BioAssay (NCI).

“And” between values parts separate entries of the source, which are not always exact repeats. Equal entries are not always repeated.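 Cultured in 96-well plates, cells were exposed to test compound for 48 hours across five concentrations. At the GI50, growth is halved. TGI denotes the concentration required for complete inhibition of growth.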

Holding throughout (experiment): NCI tumour cell line growth inhibition, 48 h
Test [1] deals with MCF7 breast.
For test [2], the system named is U251 CNS.
Test [3] relates to HCC-2998 colon.
Test [4] has as its system NCI-H522 lung.
Test [5] has as its system NCI-H23 lung.
Test [6] concerns ACHN renal.
The subject of test [7] is UACC-62 melanoma.
The subject of test [8] is UO-31 renal.
In test [9] the test system is K-562 leukemia.
In test [10] the test system is IGROV1 ovarian.

On to `NC(=O)c1ccc(I)c([N+](=O)[O-])c1`, for which the GI50 is more than 80.5 µM in [1]; 45.3 µM in [2]; 50.4 µM in test [3]; 6.06 µM in [4]; 76.1 µM in test [5]; more than 69.3 µM in test [6]. The GI50 is 56.1 µM in test [7], more than 100 µM in [8], 30.2 µM in test [9] and more than 100 µM in test [10]. Moreover, the TGI in test [1] was more than 100 µM; in test [2], more than 100 µM; in test [3] it was more than 100 µM; in test [4], 14.6 µM; in test [5], more than 100 µM; in [6] it was more than 100 µM. The TGI in test [7] was more than 100 µM; in test [8], more than 100 µM; in test [9], more than 79.9 µM; in test [10] it was more than 100 µM.

In the case of `COc1cccc(C2SC(C)C(=O)N2NC(=O)C(O)c2ccccc2)c1` (stereo not given), the GI50 in [1], in [2], in test [3], in [4], in test [5] and in [6] was more than 100 µM throughout. Also, the GI50 in test [7], in test [8], in [9] and in [10] was more than 100 µM each time. Also, the TGI in test [1], in [2], in test [3], in test [4], in [5] and in [6] was more than 100 µM throughout. Besides, the TGI in [7], in [8], in test [9] and in test [10] was more than 100 µM each time.

As to `Oc1c(CN2CCCCC2)ccc2cccnc12`, the GI50 in test [1] is 3.38 µM; in test [2], 3.61 µM; in [3], 6.6 µM; in test [4] it was 3.6 µM; in test [5], 6.84 µM; in test [6] it was 1.87 µM. For the same molecule, the GI50 in test [7] was 3.95 µM; in [8] it was 0.566 µM; in test [9] it was 3.63 µM; in [10] it was 2.52 µM. For the same molecule, the TGI was 14.8 µM in [1]; 30.9 µM in test [2]; 32.8 µM in [3]; 10.9 µM in test [4]; 36.1 µM in test [5]; more than 100 µM in [6]. For the same molecule, the TGI is 51.4 µM in test [7], 5.42 µM in [8], more than 100 µM in [9] and 7.8 µM in [10].

For `C[C@]1(c2nc3c(C(N)=O)cccc3[nH]2)CCCN1`, the GI50 in test [1] was 34.2 µM and > 71.3 µM; in test [2], 75.9 µM and > 100 µM; in test [3], more than 100 µM; in [4], > 63 µM and 97.6 µM; in test [5] it was more than 100 µM; in test [6], 41.8 µM and > 100 µM. The GI50 in [7] is more than 100 µM; in [8], more than 92.8 µM; in test [9], more than 100 µM; in [10] it was 32.7 µM and 60.5 µM. Also, the TGI in test [1], in test [2], in [3], in [4], in [5] and in [6] was more than 100 µM in each case. The TGI in [7], in [8], in test [9] and in test [10] was more than 100 µM throughout.

Turning to `CC(C)(C)c1cc[n+](C[n+]2ccc(C(C)(C)C)cc2)cc1`, the TGI in test [1], in [2], in [3], in test [4], in [5] and in test [6] was more than 100 µM throughout. Further, the TGI in test [7], in [8], in [9] and in test [10] was more than 100 µM throughout.

In the case of `COc1cc(/C=C/C(=O)c2ccccc2O)ccc1OCCCOc1cc2c(cc1OC)C(=O)N1CCC[C@H]1C=N2`, the GI50 in test [1] was 0.0426 µM; in test [2], 0.0226 µM; in [3], 0.138 µM; in test [4], 0.0662 µM; in [5], 0.0363 µM; in [6], 0.071 µM. The GI50 in test [7] was 0.0388 µM; in test [8], 0.0812 µM; in [9], 0.0297 µM; in [10], 0.0255 µM. The TGI is more than 36.9 µM in test [1]; 0.0511 µM in test [2]; 0.433 µM in test [3]; 0.453 µM in test [4]; 0.151 µM in [5]; 0.818 µM in [6]. For the same molecule, the TGI in [7] came out at 0.102 µM; in test [8], 0.771 µM; in test [9], 18.2 µM; in test [10], 0.163 µM.

Take `C/C(COc1ccc2oc(-c3ccccc3)cc(=O)c2c1)=N\O`: the GI50 was 10.1 µM in [1]; 14.4 µM in [2]; 19.5 µM in test [3]; more than 100 µM in test [4]; 88.5 µM in test [5]; more than 100 µM in [6]. In addition, the GI50 in test [7] was 16.8 µM; in test [8] it was 11.2 µM; in [9], 70.7 µM; in [10], 43.8 µM. The TGI in [1] is 36.7 µM; in test [2], 37.2 µM; in [3] it was more than 100 µM; in test [4], more than 100 µM; in test [5] it was more than 100 µM; in test [6] it was more than 100 µM. The TGI in [7] is 81.4 µM; in [8], more than 100 µM; in [9], more than 100 µM; in [10], more than 100 µM.

As for `O=C1CC=C2C3CC4N(CCC45c4ccccc4N1C25)C/C3=C\CO` (stereo not given), the TGI in [1], in test [2], in test [3], in test [4], in test [5] and in test [6] was more than 100 µM in each case. Besides, the TGI in test [7], in test [8], in [9] and in test [10] was more than 100 µM throughout.

As for `Oc1cccc2ccc(SSc3ccc4cccc(O)c4n3)nc12`, the TGI was found to be 18.9 µM in test [1]; 30 µM in test [2]; 21.3 µM in [3]; 38.2 µM in test [4]; 31.2 µM in test [5]; 29.7 µM in [6]. Further, the TGI in [7] is 39.4 µM; in test [8] it was 83.9 µM; in test [9] it was more than 100 µM; in test [10] it was 60.8 µM.
